Data taken from paper PMC8409943, “Study on mechanism of low bioavailability of black tea theaflavins by using Caco-2 cell monolayer” (Drug Delivery, 2021).
Like-named read-outs stand apart in the source and are kept apart here.

Tests used:
[1] = Transepithelial transport of theaflavins across Caco-2 cell monolayers, with or without efflux transporter inhibitors; format: in vitro ADME, Human; conditions: human; for recovery at 2 h, 200 μM: Caco-2, Caco-2 monolayers, after 2 h incubation; for efflux ratio at 2 h, 200 μM / Papp A→B at 2 h, 200 μM / Papp B→A at 2 h, 200 μM: 2 h incubation
Method: (§1) For transport studies, Caco-2 cells were seeded at a density of 3 × 10^5 cells per well in Transwell® inserts (polycarbonate membrane, 24 mm i.d., 0.4 μm pore size, Corning Costar Corp., NY, USA) in 6-well plates (Zhang et al., [2004]). […] The inserts were washed twice with HBSS buffer and equilibrated at 37 °C for 30 min. Standard stock solutions of each theaflavin were diluted to 200 μM with HBSS. For absorptive transport, theaflavins in 1.5 mL HBSS was added into the AP side and 2.6 mL HBSS was added into the BL side of all inserts. For secretory transport, 1.5 mL HBSS and 2.6 mL theaflavins in HBSS were added into AP side and BL side, respectively. Samples were collected from the receiving chamber after 0.5, 1, 2, 3, or 4 h incubation and then were lyophilized at −110 °C in a CoolSafe freeze dryer (LaboGene ApS, Bjarkesvej, Denmark) for HPLC analysis. The recovery rate of theaflavins in the transport was calculated from the above Equation (2).
(§2) Prior to transport inhibition experiment, cells were preincubated for 30 min with 100 μM Vep, 100 μM CsA, 100 μM MK-571, or 10 μM FTC in both sides (Vaidyanathan & Walle, [2001]; Wang et al., [2008]). Then, the absorptive and secretory experiments were performed in the presence of inhibitors as described above. Samples were collected from the receiving chamber after 2 h incubation and then were lyophilized at −110 °C for HPLC analysis.
(§3) The apparent permeability coefficient (Papp, cm/s) was calculated as follows: (3) Papp= dQ/dt×V/(A×C0) where dQ/dt is the variation in concentration on the receiving side over time (μM/s); V, the volume of the solution collected from the receiving chamber (cm^3); A, the area of the membrane (4.67 cm^2); C0, the initial concentration of theaflavins in the donor chamber (μM).
(§4) The efflux ratio was calculated as follows: (4) Efflux ratio= Papp(BL−AP)/Papp(AP−BL) where Papp, apparent permeability coefficient; AP-BL, apical to basolateral transport; BL-AP, basolateral to apical transport.

Caco-2 cell monolayers = assay: as above; format: in vitro ADME, Human; conditions: absorptive transport, 2 h
Method: as §1, §2, §3, §4

MRP2 = assay: Quantitative real-time PCR, mRNA level of MRP2; format: cell-based, Human; conditions: Caco-2 cells, 200 μM, 2 h, vs control
Method: Cell culture and treatment were performed as described above in 2.6. Total RNA was extracted from Caco-2 cells by the cell RNA extraction kit, and then reverse-transcribed by the cDNA synthesis kit. Gene amplification and quantitative detection were performed as previously described (Ai et al., [2019]). Target mRNA levels were normalized to β-actin mRNA levels. Data were calculated by the 2^−ΔΔCT method.

Caco-2 monolayers = assay: HPLC-MS/MS identification of metabolites in the absorptive transport of Caco-2 monolayers; format: in vitro ADME, Human; conditions: 200 µM, 2 h, AP side or BL side of Caco-2 monolayers
Method: TF3G, TF3’G and TFDG were dissolved in DMSO (≤0.5%), and then, diluted with HBSS. Caco-2 cells were incubated with 200 µM TF3G, TF3’G and TFDG at 37 °C for 2 h. Samples collected from both AP side and BL side were measured by HPLC with MS detection, and the metabolites were determined in terms of the standard TF, TF3G, TF3’G, TFDG, and gallic acid (Table S2).

Caco-2 cells [2] = assay: Intracellular accumulation of theaflavin monomers; conditions: 200 μM theaflavins, 2 h incubation, 37 °C
Method: Caco-2 cells were seeded at a density of 8 × 10^4 cells per well in 6-well plates (Ni et al., [2020]). After differentiation over a period of 21 days, cells were incubated with 2.0 mL of 200 μM theaflavins at 37 °C. After 2 h incubation, phosphate buffer was added to wash cells in the plate. Then, cell lysates were prepared with RIPA lysis buffer containing 1 mM PMSF as a protease inhibitor and centrifugated at 12,000 rpm for 30 min. Total protein contents were quantified using a BCA estimation kit according to the manufacturer’s instructions (Beyotime). Theaflavins were quantified by HPLC analysis and the intracellular accumulation was expressed as µg theaflavin/mg protein.
Theaflavins were characterized by high performance liquid chromatography (HPLC, Agilent 1100VL, Agilent Technologies Inc., CA, USA). Briefly, samples were extracted with 70% methanol, centrifuged at 685 × g for 10 min, and filtered through a 0.45 μm membrane (Nylon 66). […] Samples were eluted with a gradient of solvent A (100 mL water with 9 mL acetonitrile and 2 mL acetic acid) and B (100 mL acetonitrile with 17.8 mL water and 2 mL acetic acid) as follows: 0–5 min, 95% A; 5–10 min, 90% A; 10–20 min, 70% A; 20–25 min, 65% A; 25–30 min, 70% A; 30–35 min, 100% A. Theaflavins were detected using an ultraviolet detector at a wavelength of 278 nm.

Caco-2 cells [3] = assay: Cytotoxicity study by CCK-8 method; format: cell-based, Human; conditions: 24 h
Method: Standard stock solutions (1000 μM) of each theaflavin were prepared in 0.1% dimethyl sulfoxide (DMSO) in deionized water, and diluted with fresh DMEM to 100, 200, 300, 400, and 500 µmol/L respectively. Each inhibitor was prepared as instructions. The cytotoxicity of theaflavins and four inhibitors of multidrug resistant associated proteins to Caco-2 cells was examined by CCK-8 method (Song et al., [2014]). Briefly, Caco-2 cells were inoculated onto 96-well microtiter plates at a density of 1 × 10^4 cells per well. After incubation at 37 °C for 24 h, cells were incubated for another 24 h with different concentrations of theaflavins, followed by adding 10 μL CCK-8 solution and 1 h incubation at 37 °C. The absorbance (OD) value was determined at 450 nm using a microplate reader (ELX-800, Bio-Tek Instruments Inc., Winooski, USA). Four inhibitors were used in this study: Vep, inhibitor of P-gp; CsA, inhibitor and substrate of P-gp; MK-571, inhibitor of MRP1, MRP2 and MRP3; FTC, inhibitor of BCRP (Silbermann et al., [1989]; König et al., [1999]; Renes et al., [1999]; Ali et al., [2017]). The cytotoxicity of Vep, CsA, MK-571 or FTC was also determined by CCK-8 assay. […] To determine the effects of inhibitors on the cytotoxicity of theaflavins, cells were incubated with both different theaflavin monomers (100, 200, 300, 400, and 500 μM) and different inhibitors. IC50, the half inhibitory concentration, was calculated from the cell viability. The cell viability was calculated by the following equation: (1) Cell viability (%)=(ODsample− ODblank)/(ODcontrol− ODblank)×100% where ODsample is the absorbance value of cell + sample + complete medium; ODblank, the absorbance value of complete medium; ODcontrol, the absorbance value of cell + complete medium.

[4] = Stability (recovery rate) of theaflavins in HBSS and DMEM in the absence of cells
Method: Standard stock solutions of each theaflavin were diluted with HBSS and DMEM respectively, obtaining final test solutions of 200 μM. The recovery rate of theaflavins in HBSS and in DMEM, in the absence of cells, was analyzed by HPLC after incubation at 37 °C for 0.5, 1, 2, 3, 4, 8, 12, and 24 hours, respectively. The recovery rate was used to measure the stability and calculated as follows: (2) Recovery rate=Ct/C0× 100% where Ct is the final concentration at different incubation time (μM); C0, the initial concentration (μM).
Theaflavins were characterized by high performance liquid chromatography (HPLC, Agilent 1100VL, Agilent Technologies Inc., CA, USA). Briefly, samples were extracted with 70% methanol, centrifuged at 685 × g for 10 min, and filtered through a 0.45 μm membrane (Nylon 66). The separation was performed by an ODS reversed-phase column (4.6 mm i.d.×250 mm, SB-C18, Agilent Technologies Inc., CA, USA) at a flow rate of 0.7 mL/min. Chromatographic conditions were slightly modified according to China National Standard (GB/T 30483-2013, GAQSIQ, P. R. China, 2013). Samples were eluted with a gradient of solvent A (100 mL water with 9 mL acetonitrile and 2 mL acetic acid) and B (100 mL acetonitrile with 17.8 mL water and 2 mL acetic acid) as follows: 0–5 min, 95% A; 5–10 min, 90% A; 10–20 min, 70% A; 20–25 min, 65% A; 25–30 min, 70% A; 30–35 min, 100% A. Theaflavins were detected using an ultraviolet detector at a wavelength of 278 nm.

recovery at 2 h, 200 μM ([1]; apical to basolateral, read-out: recovery of theaflavins in absorptive transport): 39.8%
recovery at 2 h, 200 μM ([1]; basolateral to apical, read-out: recovery of theaflavins in secretory transport): 48.9%
efflux ratio at 2 h, 200 μM ([1]; Caco-2, Papp(BL−AP)/Papp(AP−BL), Ctrl (no inhibitor)): 1.24 ± 0.09
Papp A→B at 2 h, 200 μM ([1]; Caco-2, absorptive transport, 200 μM theaflavin in HBSS, Ctrl (no inhibitor)): 0.277 ± 0.009 ×10⁻⁶ cm/s
Papp B→A at 2 h, 200 μM ([1]; Caco-2, secretory transport, 200 μM theaflavin in HBSS, Ctrl (no inhibitor)): 0.342 ± 0.014 ×10⁻⁶ cm/s
efflux ratio at 2 h, 200 μM ([1]; Caco-2, with 10 μM FTC (BCRP inhibitor), + 10 μM FTC (BCRP inhibitor)): 1.05 ± 0.08
Papp A→B at 2 h, 200 μM ([1]; Caco-2, with 10 μM FTC (BCRP inhibitor), absorptive transport, + 10 μM FTC (BCRP inhibitor)): 0.31 ± 0.01 ×10⁻⁶ cm/s
Papp B→A at 2 h, 200 μM ([1]; Caco-2, with 10 μM FTC (BCRP inhibitor), secretory transport, + 10 μM FTC (BCRP inhibitor)): 0.324 ± 0.013 ×10⁻⁶ cm/s
efflux ratio at 2 h, 200 μM ([1]; Caco-2, with 100 μM CsA (P-gp inhibitor and substrate), + 100 μM CsA (P-gp inhibitor and substrate)): 0.62 ± 0.05
Papp A→B at 2 h, 200 μM ([1]; Caco-2, with 100 μM CsA (P-gp inhibitor and substrate), absorptive transport, + 100 μM CsA (P-gp inhibitor and substrate)): 0.565 ± 0.019 ×10⁻⁶ cm/s
Papp B→A at 2 h, 200 μM ([1]; Caco-2, with 100 μM CsA (P-gp inhibitor and substrate), secretory transport, + 100 μM CsA (P-gp inhibitor and substrate)): 0.348 ± 0.014 ×10⁻⁶ cm/s
efflux ratio at 2 h, 200 μM ([1]; Caco-2, with 100 μM Vep (P-gp inhibitor), + 100 μM Vep (P-gp inhibitor)): 0.73 ± 0.05
Papp A→B at 2 h, 200 μM ([1]; Caco-2, with 100 μM Vep (P-gp inhibitor), absorptive transport, + 100 μM Vep (P-gp inhibitor)): 0.415 ± 0.014 ×10⁻⁶ cm/s
Papp B→A at 2 h, 200 μM ([1]; Caco-2, with 100 μM Vep (P-gp inhibitor), secretory transport, + 100 μM Vep (P-gp inhibitor)): 0.301 ± 0.012 ×10⁻⁶ cm/s
increase of the influx (Caco-2 cell monolayers; with CsA vs control): 2.0 times
fold increase in the influx (Caco-2 cell monolayers; with MK-571 vs control): 1.47 fold
fold increase in the influx (Caco-2 cell monolayers; with verapamil vs control): 1.50 fold
conjugated metabolites (glucuronidated, sulfated and methylated) (Caco-2 monolayers): not detected
Contents of theaflavins absorbed in Caco-2 cells (Caco-2 cells [2]): -
degraded due to the structural instability ([4]; 2 h): 9.3%
Recovery rate in DMEM ([4]; pH 6.0 DMEM without cells, 200 μM, 37 °C, 2 h incubation): < 45%
SMILES: O=c1c(O)cc([C@H]2Oc3cc(O)cc(O)c3C[C@H]2O)cc2c([C@H]3Oc4cc(O)cc(O)c4C[C@H]3O)cc(O)c(O)c12 [TF, theaflavin]
decrease of mRNA (transcriptional) level of MRP2 (MRP2): 38.73%
IC50 (Caco-2 cells [3]; + CsA): 584 ± 26.9 µM
IC50 (Caco-2 cells [3]; + FTC): 492 ± 34.2 µM
IC50 (Caco-2 cells [3]; + MK-571): 463 ± 80.8 µM
IC50 (Caco-2 cells [3]; + VEP): 517 ± 66.2 µM
IC50 (Caco-2 cells [3]; Homo sapiens, Ctrl (no inhibitor)): 681 ± 19.2 µM
